The values that follow come from patent US8975400B2, “2,3-dihydroimidazo[1, 2-c] pyrimidin-5(1 H)-one compounds use as LP-PLA2 inhibitors” (Glaxo Group Limited, priority 2011, dated 2015).

Experiment [1] relates to splenic macrophages and CNS infiltrating macrophages (M1/M2 markers). The experiment in a line: Ex vivo analysis of M1 and M2 markers in macrophages of EAE rats by realtime PCR. On the set-up: species or system rat. The conditions noted are these: splenic macrophages harvested day 13 post MBP-immunization. The method, then:
Ex vivo analysis of proinflammatory (M1) and anti-inflammatory (M2) markers in control and compound treated EAE rats. Splenic macrophages were harvested at day 13 post MBP-immunization and assayed for expression of a variety of markers by realtime PCR. CNS infiltrating cells were harvested and macrophages were analyzed for expression of M1 and M2 markers by realtime PCR.

For experiment [2], the system named is experimental autoimmune encephalomyelitis (EAE) induced by myelin basic protein (MBP). The experiment can be described thus: Rat experimental autoimmune encephalomyelitis (EAE) model, preventive treatment. It is filed as in vivo. The method, then:
A further study was carried out to study the impact of Lp-PLA2 inhibitors on modulating M1/M2 imbalance. In this study, rats were induced to develop experimental autoimmune encephalomyelitis (EAE) by immunization with myelin basic protein (MBP) antigen and treated with a known Lp-PLA2 inhibitor: 5-((9-Methoxy-4-oxo-6,7-dihydro-4H-pyrimido[6,1-a]isoquinolin-2-yl)oxy)-2-(3-(trifluoromethyl)phenoxy)benzonitrile (See PCT application no. PCT/CN2011/001597). In this preventive treatment model, the compound was administered at day 0 (day of immunization) and continued to administer until day 22. The study lasted for 25 days. Rats were subsequently monitored for symptoms of EAE. Rats were immunized with MBP to develop EAE and symptoms were monitored daily. Plasma Lp-PLA2 activity, OxLDL, and LysoPC concentration were determined at different time points through the course of EAE.

In experiment [3] the target is T1, recombinant human Lp-PLA2 (Homo sapiens, UniProt Q13093).
T1 sequence (Q13093 22-441): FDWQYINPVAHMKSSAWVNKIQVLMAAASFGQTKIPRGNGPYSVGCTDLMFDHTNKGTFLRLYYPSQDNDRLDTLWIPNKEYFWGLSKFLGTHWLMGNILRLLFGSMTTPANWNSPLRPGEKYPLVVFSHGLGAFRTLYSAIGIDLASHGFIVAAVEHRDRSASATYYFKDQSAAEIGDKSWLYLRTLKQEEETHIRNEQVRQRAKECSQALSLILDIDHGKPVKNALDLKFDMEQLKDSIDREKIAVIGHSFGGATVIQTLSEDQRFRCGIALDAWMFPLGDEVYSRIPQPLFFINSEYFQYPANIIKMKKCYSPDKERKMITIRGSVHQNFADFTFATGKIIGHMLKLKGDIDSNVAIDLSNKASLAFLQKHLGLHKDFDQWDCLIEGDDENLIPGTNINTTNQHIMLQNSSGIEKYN
The experiment can be described thus: Recombinant human Lp-PLA2 assay (rhLp-PLA2, PED6 assay). In kind it is biochemical. The conditions noted are these: recombinant human Lp-PLA2, PED6 substrate; upper limit for pIC50 in this assay is 9.3. In outline:
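Compound preincubated 30 min with rhLp-PLA2 (4 nM or 110 pM) in 50 mM HEPES pH 7.4, 150 mM NaCl, 1 mM CHAPS, then PED6 substrate (4 μM or 5 μM) added. After 20 min at room temperature protected from light, fluorescence read at ex 480/em 540. pIC50 derived from serial-dilution curves.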

For a further experiment, the target named is T2, Lp-PLA2 in human plasma (Homo sapiens, UniProt Q13093).
T2 construct: This assay may detect the activity of Lp-PLA2 in human plasma; from tissue; host or cells: pooled human plasma
T2 sequence (Q13093 22-441): T1 sequence (Q13093 22-441)
The experiment can be described thus: Lp-PLA2 human plasma assay (Thio-PAF assay). The note with it: pooled human plasma, 2-thio-PAF substrate; read-out: pIC50 in the thio-PAF assay (converted). It is filed as biochemical. In outline: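 Pooled human plasma preincubated 30 min with serially diluted compounds, then 2-thio-PAF substrate with CPM and NEM added in 50 mM HEPES pH 7.4, 150 mM NaCl, 1 mM CHAPS. TFA-quenched after 2 min, 40 min at RT, fluorescence ex 380/em 485; pIC50 from curve fit.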

Turning to `COc1ccc2c(c1)CCn1c-2cc(Oc2ccc(Oc3cccc(C(F)(F)F)c3)c(C#N)c2)nc1=O` [5-((9-Methoxy-4-oxo-6,7-dihydro-4H-pyrimido[6,1-a]isoquinolin-2-yl)oxy)-2-(3-(trifluoromethyl)phenoxy)benzonitrile], in experiment [1], the “M1 (proinflammatory) markers expression” value is on record as “decrease in M1 markers” and the “M2 (anti-inflammatory) markers expression” value was “increase in M2 markers”. In experiment [2] (rat EAE plasma), the LysoPC levels entry is on record as “decreased” and the “plasma Lp-PLA2 activity” value is “decreased”. For the same molecule, the “clinical disease (EAE)” value in experiment [2] (rat EAE, compound administered day 0 until day 22, study 25 days) is on record as “reduction in clinical disease”.
`CN1CCn2c1cc(OCc1cc(F)c(Oc3ccc(C(F)(F)F)cc3)c(F)c1)nc2=O` [Example E84, 7-((3,5-difluoro-4-(4-(trifluoromethyl)phenoxy)benzyl)oxy)-1-methyl-2,3-dihydroimidazo[1,2-c]pyrimidin-5(1H)-one]: the IC50 is at most 10 nM in experiment [3] and at most 1000 nM at Lp-PLA2 in human plasma.
Turning to `CN1CCn2c1cc(OCc1ccc(Oc3ccc(Cl)c(C(F)(F)F)c3)c(F)c1)nc2=O` [Example E85, 7-((4-(4-chloro-3-(trifluoromethyl)phenoxy)-3-fluorobenzyl)oxy)-1-methyl-2,3-dihydroimidazo[1,2-c]pyrimidin-5(1H)-one], the IC50 in experiment [3] was at most 1 nM; at Lp-PLA2 in human plasma it was at most 100 nM.
Take `CN1CCn2c1cc(OCc1cc(F)c(Oc3ccc(Cl)c(F)c3)c(F)c1)nc2=O` [Example E86, 7-((4-(4-chloro-3-fluorophenoxy)-3,5-difluorobenzyl)oxy)-1-methyl-2,3-dihydroimi-dazo[1,2-c]pyrimidin-5(1H)-one]: the IC50 is at most 1 nM in experiment [3] and at most 100 nM at Lp-PLA2 in human plasma.
The corresponding values for `CN1CCn2c1cc(OCc1cc(F)c(Oc3ccc(F)c(Cl)c3)c(F)c1)nc2=O` [Example E87, 7-((4-(3-chloro-4-fluorophenoxy)-3,5-difluorobenzyl)oxy)-1-methyl-2,3-dihydroimidazo[1,2-c]pyrimidin-5(1H)-one] are at most 1 nM and at most 100 nM.
